Source: US11459337B2, “Isothiazolo[5,4-D]pyrimidine compound as IRAK4 inhibitor” (priority 2018, dated 2022)
Read-outs that look alike come from different tables or passages of the source.

Legend:
human IRAK4 = human IRAK4 (Homo sapiens (Human), UniProt Q9NWZ3); assay: 33P-labeled kinase activity assay (Reaction Biology Corp), in vitro enzymatic activity; assay type: biochemical; settings: 20 μM ATP, 3 nM kinase, MBP substrate
Experimental: The inhibitory activity of the test compounds against human IRAK4 was evaluated by measuring IC50 values in a ^33P-labeled kinase activity assay (Reaction Biology Corp). Buffer conditions: 20 mM Hepes (pH 7.5), 10 mM MgCl2, 1 mM EGTA, 0.02% Brij35, 0.02 mg/mL BSA, 0.1 mM Na3VO4, 2 mM DTT, 1% DMSO. Procedures: The test compound was dissolved in DMSO at room temperature to prepare a 10 mM solution for later use. The substrate was dissolved in fresh buffer, to which the kinase was added and mixed well. The DMSO solution containing the test compound was added to the above mixed reaction system by an acoustic technique (Echo 550). The concentrations of the compounds in reaction system were 10 μM, 3.33 μM, 1.11 μM, 0.370 μM, 0.123 μM, 41.2 nM, 13.7 nM, 4.57 nM, 1.52 nM, and 0.508 nM. After 15 minutes of incubation, the reaction was started by adding ^33P-ATP (activity: 0.01 μCi/μL; the corresponding concentration is listed in Table 1). Supplier's catalog number, lot number and concentration information in the reaction system for IRAK4 and its substrate are listed in Table 1. After 120 minutes of reaction at room temperature, the resulting solution was loaded on P81 ion exchange chromatography paper sheet (Whatman #3698-915). After repeated washing with 0.75% phosphoric acid solution, the radioactivity of the phosphorylated substrate residue on the paper sheet was measured. The kinase activity data are shown as a comparison of the kinase activity of the test compound and the kinase activity of the blank (DMSO only) and a curve was fitted using Prism4 software (GraphPad) to give IC50 values, with the experimental results shown in Table 2. [table]

[1] = In vitro metabolic stability in liver microsome, human; assay type: in vitro ADME; settings: Human liver microsomes, 1 μM compound, 0.5 mg/mL protein
Experimental: (§1) Metabolic Stability in Liver Microsome The test compounds at 1 μM were co-incubated with liver microsomes having a protein concentration of 0.5 mg/mL under the action of a reductive coenzyme II regeneration system in a 37° C. water bath. • 1) Positive controls included: testosterone (3A4 substrate), propylamine propiophenone (2D6 substrate), and diclofenac (2C9 substrate). The positive controls were incubated in the same condition as the test compounds. • 2) The reaction was stopped using a stop reagent containing the internal standard at time points of 0, 5, 10, 20, 30 and 60 minutes. […] CLint^mic: intrinsic microsomal clearance;

[2] = In vitro metabolic stability in liver microsome, rat; assay type: in vitro ADME; settings: Rat liver microsomes, 1 μM compound, 0.5 mg/mL protein
Experimental: as §1

[3] = In vitro metabolic stability in liver microsome, dog; assay type: in vitro ADME; settings: Dog liver microsomes, 1 μM compound, 0.5 mg/mL protein
Experimental: as §1

[4] = In vitro metabolic stability in liver microsome, mouse; assay type: in vitro ADME; settings: Mouse liver microsomes, 1 μM compound, 0.5 mg/mL protein
Experimental: as §1

[5] = In vitro metabolic stability in liver microsome, monkey; assay type: in vitro ADME; settings: Monkey liver microsomes, 1 μM compound, 0.5 mg/mL protein
Experimental: as §1

THP-1 cells = assay: TNF-α ELISA assay in LPS-stimulated THP-1 cells; assay type: cell-based, human; settings: Homo sapiens, THP-1, 18 h, TNF-α in supernatant, 150 ng/mL LPS
Experimental: TNF-α ELISA Assay in THP-1 Cells THP-1 human acute unicellular leukemia cells were purchased from ATCC (Cat #TIB-202) and incubated in a 37° C., 5% CO2 incubator. The medium was RPMI1640 (Gibco, Cat #22400-105), the supplementary was 10% FBS (Gibco, Cat #10091148); 1% PenStrep (Gibco, Cat #15140); 0.05 mM 2-mercaptoethanol (Sigma, Cat #M6250). TNF-α content in the culture supernatant was measured by a TNF-α Elisa kit. TNF-α was produced by stimulation of THP-1 cells with 150 ng/mL LPS (Sigma, Cat #L6529). Normal THP-1 cells in logarithmic phase were inoculated in 96-well plates (Corning #3599) at a certain concentration (1×10^5/100 μL) and then incubated in an incubator. After two hours, 16.7 μL of test compound of different concentrations (8×final concentration) was added and the mixture was incubated. After one hour, 16.7 μL of 1200 ng/mL LPS was added and the mixture was incubated. After 18 hours, the culture was centrifuged and the supernatant was collected. The TNF-α content was measured by a TNF-α Elisa kit. Finally, the OD signals (OD450-OD570) were read on an envision plate reader. The OD450-OD570 signals were converted to percent inhibition. Inhibition %=(ZPE−sample)/(ZPE−HPE)×100. “HPE” represents the OD450-OD570 signal value of the control without LPS-stimulated cells, and “ZPE” represents the OD450-OD570 signal value of the control with LPS-stimulated cells. IC50 values for compounds were calculated by XLFit in the Excel. Y=Bottom+(Top−Bottom)/(1+(IC50/X)^HillSlope). Equation: […]

[6] = Pharmacokinetic study of oral and intravenous test compounds in SD rats; assay type: in vivo; settings: rat, plasma, SD male rats; for AUC(0-t): read-out: Area under plasma concentration-time curve AUC0-last
Experimental: Pharmacokinetic Study of Oral and Intravenous Test Compounds in SD Rats The test compound was mixed with a solution containing 10% of methyl pyrrolidone, 10% of polyethylene glycol stearate and 80% of water. The mixture was vortexed and sonicated to prepare a 1.5 mg/mL clarified solution, which was then filtered through a microporous membrane for later use. SD male rats aged 7 to 10 weeks were selected and administered intravenously with a dose of the candidate compound at 3 mg/kg. The test compound was mixed with 0.5% aqueous methylcellulose solution. The mixture was vortexed and sonicated to prepare a 2 mg/mL suspension for later use. SD male rats aged 7 to 10 weeks were selected and orally administered with a dose of the candidate compound at 10 mg/kg. Whole blood was collected at certain time points, and plasma was separated. The drug concentration was measured by LC-MS/MS, and pharmacokinetic parameters were calculated using Phoenix WinNonlin software (Pharsight, USA).

[7] = system: LPS-induced TNF-α secretion; assay: Pharmacodynamic study evaluating LPS-induced TNF-α secretion in SD rats; assay type: in vivo; settings: for inhibitory effect on LPS-induced TNF-α secretion: LPS 1 mg/kg i.p.
Experimental: Pharmacodynamic Study Evaluating […] (LPS)-Induced TNF-α Secretion in SD Rats SD rats were orally administered with a solvent, dexamethasone (DEX, 0.5 mg/kg) as positive control, and the test compound, and were intraperitoneally injected with LPS (1 mg/kg) 0.5 hours after the administration Animals were euthanized with CO2 2 hours after LPS injection. Cardiac blood was collected into EDTA-K2 vacutainers, and a part of the anticoagulated blood was centrifuged and the plasma was frozen at −80° C. Frozen plasma was thawed at room temperature and the concentration of TNF-α in the plasma was measured using ELISA kit. The experimental data were expressed using mean±SEM, and TNF-α levels were analyzed by One-way ANOVA. Significant differences were considered for p<0.05.

human IRAK4, sequence (Q9NWZ3 whole entry): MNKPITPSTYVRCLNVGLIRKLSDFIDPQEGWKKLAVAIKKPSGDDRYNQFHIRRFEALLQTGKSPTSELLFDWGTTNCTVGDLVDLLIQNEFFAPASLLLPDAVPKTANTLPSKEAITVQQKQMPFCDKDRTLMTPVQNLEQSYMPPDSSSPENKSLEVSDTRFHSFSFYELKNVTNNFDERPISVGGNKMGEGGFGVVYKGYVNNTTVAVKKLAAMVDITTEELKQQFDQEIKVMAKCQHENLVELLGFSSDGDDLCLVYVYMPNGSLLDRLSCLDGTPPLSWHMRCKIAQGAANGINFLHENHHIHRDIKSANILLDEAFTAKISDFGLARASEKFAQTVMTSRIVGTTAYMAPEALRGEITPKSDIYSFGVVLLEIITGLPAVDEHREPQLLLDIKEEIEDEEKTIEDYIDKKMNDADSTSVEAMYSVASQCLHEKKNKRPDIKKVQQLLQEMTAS

## Cc1nsc2nc(Nc3cnn(C4CCOCC4)c3)nc(N[C@H]3CC[C@H](N4CCOCC4)CC3)c12 [WX001]
Human IRAK4
  IC50: 6.8 nM
[1]
  Re1 h % (residue of test compound at 1 hour): 50.0%
[2]
  Re1 h % (residue of test compound at 1 hour): 76.6%
[3]
  Re1 h % (residue of test compound at 1 hour): 60.5%
[4]
  Re1 h % (residue of test compound at 1 hour): 39.1%
[5]
  Re1 h % (residue of test compound at 1 hour): 3.2%
THP-1 cells
  IC50: 177 nM
[6]; Intravenous, 3 mg/kg, read-out: Apparent volume of distribution Vdss
  Vd: 4.6 L/kg
[6]; Intravenous, 3 mg/kg
  AUC(0-t): 1.75 µM·h
[6]; Intravenous, 3 mg/kg, read-out: Clearance CL
  clearance: 57 mL/min/kg
[6]; Intravenous, 3 mg/kg, read-out: Half life T1/2 (converted)
  half-life: 1.4 h
[6]; Oral, 10 mg/kg
  AUC(0-t): 2.05 µM·h
[6]; Oral, 10 mg/kg, read-out: Bioavailability F
  bioavailability: 35%
[6]; Oral, 10 mg/kg, read-out: Peak concentration Cmax
  Cmax: 397 nM
[6]; Oral, 10 mg/kg, read-out: Time to peak Tmax
  Tmax: 2.3 h
[7]; FIG. 1, oral, 30 mpk, DEX 0.5 mg/kg
  efficacy compared with dexamethasone DEX: equivalent
[7]; FIG. 1, oral, 30 mpk
  inhibitory effect on LPS-induced TNF-α secretion: significant inhibitory effect
[7]; FIG. 1, oral, same doses (30 mpk)
  inhibitory effect compared with reference compounds WXR2, WXR3 and WXR4: significantly superior
[7]; FIG. 2, oral, 20 mpk
  inhibitory effect on LPS-induced TNF-α secretion: significant inhibitory effect
